What all share (assay type): physicochemical
Data set [1] in a line: Encapsulation efficiency of lipid nanoparticles, Quant-it Ribogreen RNA quantification assay. The conditions noted are these: LNP with mRNA. As for the experimental part:
(§1) Briefly, a cationic lipid provided herein, DSPC, cholesterol, and PEG-lipid were solubilized in ethanol at a molar ratio of 50:10:38.5:1.5, and mRNA were diluted in 10 to 50 mM citrate buffer, pH=4. The LNPs were prepared at a total lipid to mRNA weight ratio of approximately 10:1 to 30:1 by mixing the ethanolic lipid solution with the aqueous mRNA solution at a volume ratio of 1:3 using a microfluidic apparatus, total flow rate ranging from 9-30 mL/min. Ethanol were thereby removed and replaced by DPBS using dialysis. Finally, the lipid nanoparticles were filtered through a 0.2 μm sterile filter.
(§2) Lipid nanoparticle size were determined by dynamic light scattering using a Malvern Zetasizer Nano ZS (Malvern UK) using a 173° backscatter detection mode. The encapsulation efficiency of lipid nanoparticles were determined using a Quant-it Ribogreen RNA quantification assay kit (Thermo Fisher Scientific, UK) according to the manufacturer's instructions.

Data set [2] is described as follows: Apparent pKa of LNP formulations, TNS fluorescence assay. The settings on record: LNP cationic lipid/DSPC/cholesterol/DMG-PEG 50/10/38.5/1.5 mol %, pH 3 to 9. Here is the method:
As reported in literature, the apparent pKa of LNP formulations correlates with the delivery efficiency of LNPs for nucleic acids in vivo. The apparent pKa of each formulation was determined using an assay based on fluorescence of 2-(p-toluidino)-6-napthalene sulfonic acid (TNS). LNP formulations comprising of cationic lipid/DSPC/cholesterol/DMG-PEG (50/10/38.5/1.5 mol %) in PBS were prepared as described above. TNS was prepared as a 300 uM stock solution in distilled water. LNP formulations were diluted to 0.1 mg/ml total lipid in 3 mL of buffered solutions containing 50 mM sodium citrate, 50 mM sodium phosphate, 50 mM sodium borate, and 30 mM sodium chloride where the pH ranged from 3 to 9. An aliquot of the TNS solution was added to give a final concentration of 0.1 mg/ml and following vortex mixing fluorescence intensity was measured at room temperature in a Molecular Devices Spectramax iD3 spectrometer using excitation and mission wavelengths of 325 nm and 435 nm. A sigmoidal best fit analysis was applied to the fluorescence data and the pKa value was measured as the pH giving rise to half-maximal fluorescent intensity.

Data set [3] can be described thus: Lipid nanoparticle size and polydispersity by dynamic light scattering (Malvern Zetasizer Nano ZS). The settings on record: LNP of cationic lipid/DSPC/cholesterol/PEG-lipid 50:10:38.5:1.5 with mRNA. Here is the method: as §1, §2

Regarding `CCCCCCCCCCCCOCC(CN(CCO)C1CCC1)OCCCCCCCCCCCC` (stereo not drawn) [Compound 1], in data set [1], the “Encapsulation Efficiency” value was 96.3%. For the same compound, the “Apparant Pka” value in data set [2] came out at 5.902. In addition, in data set [3], the polydispersity was determined as 0.12 and the “size (nm)” value is recorded as 72.4 nm.
Taken in the same sequence, the figures for `CCCCCCCCCCCCOCC(CN(CCO)C1CCC1)OC(=O)CCCCCCCCCCC` (stereo not drawn) [Compound 2] were 94.5%, 5.177, 0.094 and 69.05 nm.
Consider `CCCCCCCCCCCCOCC(CN(CCO)C1CCC1)OC(=O)CCCCC` (stereo not drawn) [Compound 3], for which, in data set [1], the “Encapsulation Efficiency” value amounted to 92.8%. In data set [3], the polydispersity was determined as 0.124 and the “size (nm)” value amounted to 105.6 nm.
With `CCCCCCCCCCCCOCC(CN(CCO)C1CCC1)OCCCCCC(=O)OCC(CCCCCC)CCCCCCCC` (stereo not drawn) [Compound 4], in data set [1], the “Encapsulation Efficiency” value came out at 94.6%. Also, the “Apparant Pka” value in data set [2] is 5.083. Further, in data set [3], the polydispersity is given as 0.2 and the “size (nm)” value is recorded as 54.52 nm.
For `CCCCCCCCCCCCOCC(CN(C)CCN(CCO)C1CCCC1)OCCCCCC` (stereo not drawn) [Compound 5], in that order: 92.4%, 7.315, 0.384 and 78.36 nm.
For `CCCCCCCCCCCCOCC(CN(C)CCN(CCO)C1CCCCC1)OCCCCCCCCCCCC` (stereo not drawn) [Compound 6], in that order: 93.4%, 7.035, 0.241 and 126.4 nm.
As to `CCCCCCCCCCCCOCC(O)CN(CCCCCC(=O)OCC(CCCCCC)CCCCCCCC)CCN(C)C` (stereo not drawn) [Compound 7], the “Encapsulation Efficiency” value in data set [1] came out at 96.7%. In addition, in data set [2], the “Apparant Pka” value worked out at 8.7. Also, in data set [3], the polydispersity is 0.063 and the “size (nm)” value turned out to be 85.46 nm.
Take `CCCCCCCCCCCCOCC(O)CN(CCCCCC(=O)OCC(CCCCCC)CCCCCCCC)CCN1CCCCC1` (stereo not drawn) [Compound 8]: the “Encapsulation Efficiency” value in data set [1] stood at 88.2%. Further, the “Apparant Pka” value in data set [2] is 7.327. In addition, in data set [3], the polydispersity came to 0.156 and the “size (nm)” value is on record as 102.9 nm.
As to `CCCCCCCCCCCCOCC(CN(CCCCCC(=O)OCC(CCCCCC)CCCCCCCC)CCN1CCCCC1)OC(C)=O` (stereo not drawn) [Compound 9], the “Encapsulation Efficiency” value in data set [1] came out at 90.8%. In data set [3], the polydispersity is 0.144 and the “size (nm)” value turned out to be 70.97 nm.
For `CCCCCCCCCCCCOCC(O)CN(CCCCCC(=O)OCC(CCCCCC)CCCCCCCC)CCN1CCCC1` (stereo not drawn) [Compound 10], in that order: 94.8%, 0.356 and 84.22 nm.
Turning to `CCCCCCCCCCCCOCC(O)CN(CCCCCC(=O)OCC(CCCCCC)CCCCCCCC)CCN(CC)CC` (stereo not drawn) [Compound 11], the “Encapsulation Efficiency” value in data set [1] is given as 82.2%. In addition, in data set [2], the “Apparant Pka” value was found to be 7.701. Moreover, in data set [3], the polydispersity came out at 0.196 and the “size (nm)” value worked out at 77.98 nm.
As to `CCCCCCCCCCCCOCC(O)CN(CCO)CCCCCC(=O)OCC(CCCCCC)CCCCCCCC` (stereo not drawn) [Compound 13], the “Encapsulation Efficiency” value in data set [1] was 94.2%. In data set [2], the “Apparant Pka” value is 7.089. In data set [3], the polydispersity was 0.128 and the “size (nm)” value came out at 61.3 nm.
For `CCCCCCCCCCCCOCC(CN(CCO)CCCCCC(=O)OCC(CCCCCC)CCCCCCCC)OC(=O)CCCCC` (stereo not drawn) [Compound 14], in that order: 86.1%, 4.536, 0.4 and 56.31 nm.
In the case of `CCCCCCCCCCCCOCC(CN(CCCCCC(=O)OCC(CCCCCC)CCCCCCCC)CCN1CCCCC1)OC(=O)CCCCC` (stereo not drawn) [Compound 15], in data set [1], the “Encapsulation Efficiency” value came to 93.5%. In addition, the “Apparant Pka” value in data set [2] was determined as 5.875. In data set [3], the polydispersity is recorded as 0.139 and the “size (nm)” value was 62.11 nm.
For `CCCCCCCCCCCCOCC(CN(CCCCCC)CCN(CCO)C1CCC1)OCCCCCCCCCCCC` (stereo not drawn) [Compound 16], the “Encapsulation Efficiency” value in data set [1] is given as 89.8%. In data set [3], the polydispersity is 0.060 and the “size (nm)” value was 74.31 nm.
On to `CCCCCCCCCCCCOCC(CN(CCCCCCCCCCCC)CCN(CCO)C1CCC1)OCCCCCCCCCCCC` (stereo not drawn) [Compound 17], for which the “Encapsulation Efficiency” value in data set [1] was 92.8%. Further, in data set [2], the “Apparant Pka” value was 5.835. In addition, in data set [3], the polydispersity was 0.186 and the “size (nm)” value came to 79.43 nm.
For `CCCCCCCCCCCCOCC(CN(CCO)CCCCCC(=O)OCC(CCCCCC)CCCCCCCC)OC(C)=O` (stereo not drawn) [Compound 18], in that order: 90.6%, 4.916, 0.17 and 65.06 nm.
For `CCCCCCCCCCCCOCC(CN(CCO)CCCCCC(=O)OCC(CCCCCC)CCCCCCCC)OC(=O)CC` (stereo not drawn) [Compound 19], in that order: 88.5%, 4.957, 0.156 and 117.5 nm.
For `CCCCCCCCCCCCOCC(CN(CCCCCC(=O)OCC(CCCCCC)CCCCCCCC)CCN(CCO)C1CCC1)OC(C)=O` (stereo not drawn) [Compound 20], in that order: 90.7%, 5.96, 0.145 and 67.7 nm.
As for `CCCCCCCCCCCCOCC(CN(CCCCCC(=O)OCC(CCCCCC)CCCCCCCC)CCN(CCO)C1CCCCC1)OCCCCCC` (stereo not drawn) [Compound 25], the “Encapsulation Efficiency” value in data set [1] was determined as 94.70%. For the same compound, in data set [3], the polydispersity is recorded as 0.112 and the “size (nm)” value is given as 58.01 nm.
On to `CCCCCCCCCCCCOCC(CN(C)CCN(CCO)C1CCC1)OC(=O)CCCC` (stereo not drawn) [Compound 40], for which, in data set [1], the “Encapsulation Efficiency” value is 36.4%. In addition, in data set [3], the polydispersity came to 0.326 and the “size (nm)” value was found to be 230 nm.
Turning to `CCCCCCCCC(CCCCCCCC)CNC(=O)CCOCC(CN(C)CCN(CCO)C1CCCCC1)OCCC(=O)NCC(CCCCCCCC)CCCCCCCC` (stereo not drawn) [Compound 52], in data set [1], the “Encapsulation Efficiency” value stood at 96.5%. Further, in data set [3], the polydispersity worked out at 0.14 and the “size (nm)” value turned out to be 66.03 nm.
For `CCCCCCCCC(CCCCCCCC)CNC(=O)CCOCC(CN(C)CCN(CCO)C1CCCCCC1)OCCC(=O)NCC(CCCCCCCC)CCCCCCCC` (stereo not drawn) [Compound 58], the “Encapsulation Efficiency” value in data set [1] is given as 97.3%. For the same compound, in data set [3], the polydispersity amounted to 0.032 and the “size (nm)” value is given as 56.37 nm.
Take `CCCCCCC(CCCCCC)COC(=O)CCCCCN(CCN1CCC(O)C1)CC(COC(=O)CCCCC)OC(=O)CCCCC` (stereo not drawn) [Compound 59]: the “Encapsulation Efficiency” value in data set [1] was 96.1%. In data set [3], the polydispersity is given as 0.049 and the “size (nm)” value stood at 94.89 nm.
Taken in the same sequence, the figures for `CCCCC/C=C\C/C=C\CCCCCCCC(=O)OCC(CN(C)CCN(CCO)C1CCC1)OC(=O)CCCCCCC/C=C\C/C=C\CCCCC` (stereo not drawn) [Compound 64] were 91.6%, 0.075 and 73.8 nm.
For `CCCCCCCCC(CCCCCCCC)COC(=O)CCOCC(CN(C)CCN(CCO)C1CCCCC1)OCCC(=O)OCC(CCCCCCCC)CCCCCCCC` (stereo not drawn) [Compound 72], the “Encapsulation Efficiency” value in data set [1] is 95.22%. Moreover, in data set [3], the polydispersity came out at 0.055 and the “size (nm)” value is 81.89 nm.
For `CCCCCCCCCCCCCCCC(=O)OCC(CCCCN(CCO)C1CCCCC1)COC(=O)CC(CCCCCC)CCCCCCCC` (stereo not drawn) [Compound 86], in that order: 92.81%, 0.03 and 73.58 nm.
Regarding `CCCCCCCCCCC(=O)OCC(CCCCN(CCO)C1CCCCCC1)COC(=O)CC(CCCCCC)CCCCCCCC` (stereo not drawn) [Compound 92], in data set [1], the “Encapsulation Efficiency” value came to 90.25%. In data set [3], the polydispersity was determined as 0.051 and the “size (nm)” value was 70.85 nm.
On to `CCCCCCCCC(CCCCCC)COC(=O)CCOCC(CN(CCCCCC)CCN(CCO)C1CCCCCC1)OCCC(=O)OCC(CCCCCC)CCCCCCCC` (stereo not drawn) [Compound 107], for which the “Encapsulation Efficiency” value in data set [1] came to 93.66%. For the same compound, in data set [3], the polydispersity worked out at 0.067 and the “size (nm)” value stood at 61.18 nm.
With `CCCCCCCCCC(CCCCC)COC(=O)CCOCC(CN(CCO)C1CCC1)OCCC(=O)OCC(CCCCCC)CCCCCCCC` (stereo not drawn) [Compound 108], the “Encapsulation Efficiency” value in data set [1] came to 92.04%. Also, in data set [3], the polydispersity is reported as 0.097 and the “size (nm)” value was 47.87 nm.

These data come from patent US11964052B2, “Lipid compounds and lipid nanoparticle compositions” (SUZHOU ABOGEN BIOSCIENCES CO., LTD., priority 2021, dated 2024).
